These results are taken from article PMC4886219, “Bioengineered kidney tubules efficiently excrete uremic toxins” (Scientific Reports, 2016).

One series concerns the target T1, OAT3 (Homo sapiens, UniProt Q8TCC7).
T1 sequence (Q8TCC7 1-542): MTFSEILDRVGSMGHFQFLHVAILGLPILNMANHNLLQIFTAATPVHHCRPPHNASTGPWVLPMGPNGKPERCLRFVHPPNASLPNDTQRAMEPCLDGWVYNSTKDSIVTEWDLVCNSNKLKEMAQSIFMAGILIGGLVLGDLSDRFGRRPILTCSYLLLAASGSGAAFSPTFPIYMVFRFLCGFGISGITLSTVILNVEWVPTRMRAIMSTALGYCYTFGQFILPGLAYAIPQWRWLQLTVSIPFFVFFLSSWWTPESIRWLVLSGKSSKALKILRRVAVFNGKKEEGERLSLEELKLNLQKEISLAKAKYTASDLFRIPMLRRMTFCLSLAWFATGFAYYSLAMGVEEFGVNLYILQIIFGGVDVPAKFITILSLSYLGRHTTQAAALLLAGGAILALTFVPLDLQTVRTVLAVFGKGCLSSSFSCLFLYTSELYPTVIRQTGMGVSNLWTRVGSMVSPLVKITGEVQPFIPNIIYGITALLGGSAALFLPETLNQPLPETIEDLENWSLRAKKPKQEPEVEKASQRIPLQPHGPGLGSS
In words: Fluorescein inhibition assay in ciPTEC-OAT3 flat monolayers.

Details of series [1]: method as in Duranton et al.[6]. The settings on record: mean plasma levels in ESRD patients; ref Duranton et al.[6]; cited from earlier work.
Series [2] concerns the target T2, OAT1 (Homo sapiens, UniProt Q4U2R8).
T2 sequence (Q4U2R8 1-563): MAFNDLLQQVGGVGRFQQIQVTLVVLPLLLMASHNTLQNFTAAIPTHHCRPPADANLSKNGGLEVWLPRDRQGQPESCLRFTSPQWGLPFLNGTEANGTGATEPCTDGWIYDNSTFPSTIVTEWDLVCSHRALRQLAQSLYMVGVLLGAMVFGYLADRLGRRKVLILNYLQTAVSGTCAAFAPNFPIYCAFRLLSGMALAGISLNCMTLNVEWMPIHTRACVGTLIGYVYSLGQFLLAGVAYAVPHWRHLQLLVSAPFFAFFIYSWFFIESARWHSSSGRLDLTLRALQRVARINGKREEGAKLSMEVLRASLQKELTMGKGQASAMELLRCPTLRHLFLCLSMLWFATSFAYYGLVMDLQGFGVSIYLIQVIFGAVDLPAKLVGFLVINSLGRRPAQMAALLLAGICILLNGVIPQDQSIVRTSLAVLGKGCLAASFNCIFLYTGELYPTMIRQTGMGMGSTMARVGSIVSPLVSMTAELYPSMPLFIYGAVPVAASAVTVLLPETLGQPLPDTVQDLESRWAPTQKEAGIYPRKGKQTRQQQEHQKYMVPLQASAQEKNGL
The series can be described thus: Fluorescein inhibition assay in ciPTEC-OAT1 flat monolayers.

For another series, the system named is BCRP. Set-up: method as in earlier work. The settings on record: vesicular transport assay; ref 14 (Mutsaers et al.); cited from earlier work.
In series [3] the test system is parent ciPTEC models lacking OAT1. The series can be described thus: MTT cell viability assay in parent ciPTEC lacking OAT1. The class given is cell-based, human. The settings on record: parent ciPTEC lacking OAT1, in presence of efflux pump inhibitors. As for the experimental part:
After 4 hours of incubation, the intracellular
Monolayer polarization and transepithelial barrier function
Next, cells were incubated with
The mR NA expression level s of
PCR Master Mix (Applied Biosystems, Branchburg, NJ).
On the technique in general: Formazan colour is commonly taken as a measure of viable cells.

Another series concerns MRP4. Also noted: method as in earlier work. The settings on record: vesicular transport assay; ref 14 (Mutsaers et al.); cited from earlier work.
The target in series [4] is T2, OAT1. In words: in vitro. The settings on record: pH 7.4, inhibition of indoxyl sulfate uptake.
Series [5] has as its system bioengineered renal tubules (ciPTEC-OAT1 on HFM). The series can be described thus: Transepithelial transport (clearance) of indoxyl sulfate and kynurenic acid in bioengineered renal tubules. Format: cell-based. The settings on record: absence of human serum albumin; perfusion 10 min, 100 μM toxin.
Series [6] addresses T2, OAT1. The series can be described thus: Uptake of indoxyl sulfate and kynurenic acid by ciPTEC-OAT1 (LC-MS/MS). The settings on record: 10 min, 37°C.
[7] abbreviates: read-out: ciPTEC-OAT3 IC50 (inhibition of fluorescein uptake), 1 μM fluorescein, 10 min, 37°C, flat monolayers, mean ± S.E.M.
Setting [8] is: read-out: ciPTEC-OAT1 IC50 (inhibition of fluorescein uptake), 1 μM fluorescein, 10 min, 37°C, flat monolayers, mean ± S.E.M.

Molecules are shown by their SMILES. Structures can show the parent of a compound that is named as a salt. Where two headings read alike, the source gives them in different places.

Regarding `O=C(O)CNC(=O)c1ccccc1` [Hippuric acid], at OAT3, the midpoint of inhibition, the IC50, lay at 22 ± 9 µM. For the same compound, the “Cm in ESRD patients” value in series [1] was 398 µM.
In the case of `O=C(O)Cc1c[nH]c2ccccc12` [Indole-3-acetic acid], the IC50 – broadly, the point on the concentration scale where inhibition reaches its midpoint – worked out at 148 ± 60 µM on OAT3 and 19 ± 2 µM at OAT1 [2].
Take `O=S(=O)(O)Oc1c[nH]c2ccccc12` [Indoxyl sulfate]: the “Cm in ESRD patients” value in [1] is 110 µM. In addition, the “inhibition of BCRP (in words)” value in the series with BCRP is recorded as “potent inhibitors”. Further, in series [3], the “TC50 (cell viability, MTT)” value is 3000 ± 500 µM. The “inhibition of MRP4 (in words)” value in the series with MRP4 is on record as “potent inhibitors”.
Regarding `O=C(O)[C@H]1O[C@@H](Oc2c[nH]c3ccccc23)[C@H](O)[C@@H](O)[C@@H]1O` [Indoxyl-β-glucuronide], the IC50 against OAT3 was determined as 527 ± 218 µM; on OAT1 [2] it was 492 ± 68 µM. Also, in series [1], the “Cm in ESRD patients” value was 9 µM.
For the compound `O=C(O)c1cc(=O)c2ccccc2[nH]1` [Kynurenic acid], the IC50 on OAT3 and at OAT1 [2] was 6 ± 1 µM each time. The inhibition – broadly, the percentage by which the read-out fell short of the control – at 10 min, 100 μM against OAT1 [4] worked out at 64 ± 13%. The same compound yielded a transepithelial clearance in series [5] of 72 ± 20 μl.min^−1.cm^−2. For the same compound, the “uptake by ciPTEC-OAT1 monolayers” value was 2.7 ± 0.3 pmol.min^−1.cm^−2 at OAT1 [6] (toxin 3 μM) and 5.9 ± 0.5 pmol.min^−1.cm^−2 at OAT1 [6] (toxin 30 μM).
As for `Nc1ccccc1C(=O)C[C@H](N)C(=O)O` [L-Kynurenine], the figures for the half-inhibitory concentration (IC50) at OAT3 and against OAT1 [2] were 219 ± 66 µM and 65 ± 8 µM, respectively. For the same compound, the “Cm in ESRD patients” value in [1] is 6 µM.
As for `Cc1ccc(O[C@@H]2O[C@H](C(=O)O)[C@@H](O)[C@H](O)[C@H]2O)cc1` [p-Cresylglucuronide], the values for the IC50 at OAT3 (setting [7]) and on OAT1 [2] (setting [8]) were 588 ± 81 µM and 2650 ± 922 µM, respectively. Besides, the “Cm in ESRD patients” value in series [1] is 44 µM.
Turning to `Cc1ccc(OS(=O)(=O)O)cc1` [p-Cresylsulfate], the results for the half-maximal inhibitory concentration (IC50) at OAT3 (setting [7]) and at OAT1 [2] (setting [8]) were 112 ± 19 µM and 79 ± 14 µM, respectively. Besides, the “Cm in ESRD patients” value in series [1] is 675 µM.
